Assays:
[1] = Blood levels after oral immediate release formulations; format: in vivo, human; conditions: for serum levels remained at or above: entire day
Experimental: Blood levels of 17α-ethynylandrost-5-ene-3β,7β,17β-triol were determined in adult patients dosed with a range of dosages as oral immediate release formulations. The formulations were essentially as described in example 3, with capsules containing 1 mg/capsule, 5 mg/capsule, 10 mg/capsule, 25 mg/capsule or 50 mg/capsule. These unit doses were filled into hard gelatin capsules (size #1 for […] doses; size #2 for the 1 and 5 mg doses) and micronized compound (D90˜[…]) was used.
Two capsules containing 1 mg of 17α-ethynylandrost-5-ene-3β,7β,17β-triol were administered twice per day to patients receiving a 4 mg/day total dose. […] Blood levels of the compound were at or above about 0.5 ng/mL for over 2 hours/day. […] In other patients receiving 4 mg/day for 28 days, there was a lower degree of response than patients receiving higher doses and 4 mg/day was considered to be the minimal effective dose.
Analysis of some of the evaluable patients from example 1 gave the following results. […] Drug exposure over 24 hours (AUC0-24) in patients receiving 10 mg/day (5 mg twice per day) ranged from 15.7 ng·hr/mL to 190 ng·hr/mL and from 72 ng·hr/mL to 198 ng·hr/mL in patients receiving 20 mg/day (10 mg twice per day). Drug exposure in patients receiving 40 mg/day (20 mg twice per day) ranged from 60 ng·hr/mL to 209 ng·hr/mL.

[2] = test system: pre-diabetic hyperglycemic patients and patients having type 2 diabetes; experiment: Biomarkers in 28-day clinical trial (serum CRP, adipokines; cytokines from LPS stimulated PBMC by ELISA); format: in vivo, human
Experimental: Groups of pre-diabetic hyperglycemic patients and patients having type 2 diabetes were treated for 28 days with the experimental drug 17α-ethynylandrost-5-ene-3β,7β,17β-triol (oral capsules) or with placebo. Dosages for the pre diabetic patients were 0 mg per day (placebo control; n=10), 5 mg once per day (n=9; cohort 1), 5 mg twice per day (n=8; cohort 2) or 10 mg twice per day (n=7; cohort 3). Placebos were obtained with each treatment cohort based on protocol randomization of 2 treated:1 placebo. The pre-diabetic patients were obese (body mass index ≧29 kg/m^2) and glucose intolerant (fasting plasma glucose <126 mg/dL; 2-hr post prandial glucose 140-200 mg/dL after 75 g oral glucose). The diabetic patients were dosed with 10 mg/day for 28 days (n=6; cohort 6). The glucose clamp protocol was performed on groups of patients dosed with 10 mg/day or 20 mg/day of drug at baseline, one day before drug treatment started (day −1), and one day after the last day of dosing with the drug (day 29). Patients with an M value of <5 mg glucose/kg/min (M<5) were considered insulin resistant and patients with an M value of >5 mg glucose/kg/min (M>5) were considered insulin sensitive or essentially normal for whole body glucose metabolism.
Levels of cytokine biomarkers from patients with M values measured by glucose clamp such as MCP1, TNFα, IL-6 and IL-1β were measured by ELISA as the amount of cytokine secreted from LPS stimulated peripheral blood mononuclear cells from the patients at baseline (day −1) and at 1 day after the last day of drug dosing (day 29). Levels of RBP4 and CRP protein were measured from patient serum.
The analysis of responders used standard analysis. Due to the cohort sizes and the ongoing basis of this clinical protocol, data for surrogates that corresponded to significance at p≦0.10 (trend) were considered positive evidence of surrogacy of the biomarker for the M<5 insulin resistant condition.

[3] = 2 mg twice per day (4 mg/day), n=2
[4] = cohort 2, 3 and 6 M<5 patients vs M>5 patients, p<0.03

## C#C[C@]1(O)CC[C@H]2[C@@H]3[C@@H](O)C=C4C[C@@H](O)CC[C@]4(C)[C@H]3CC[C@@]21C [17α-ethynylandrost-5-ene-3β,7β,17β-triol]
[1]; 2 mg twice per day
  time with blood levels at or above about 0.5 ng/mL: over 2 hours/day
[1]; [3]
  peak blood levels: 1 to 2 ng/mL
  time of peak blood levels after dosing: 2 to 3 h
[1]; 2 mg twice per day, for over 2 hours/day
  blood levels maintained: ≥ 0.5 ng/mL
[1]; 10 mg twice per day (20 mg/day on a single day), n=2
  peak serum levels: 10 to 30 ng/mL
[1]; 10 mg twice per day
  serum levels remained at or above: ≥ 3 ng/mL
[1]; 25 mg twice per day
  serum levels remained at or above: ≥ 3 ng/mL
[1]; 50 mg twice per day (100 mg/day), n=2
  peak serum levels: 80 to 150 ng/mL
[1]; 50 mg twice per day (100 mg/day)
  serum levels remained at or above: ≥ 10 ng/mL
[1]; 100 mg/day dose level
  induction of cytochromes (liver enzymes): not observed
[1]; fasted vs fed status
  fasted Cmax lower compared to patients dosed after a meal: up to 60%
[1]; females (n=3), 20 mg/day (10 mg twice per day)
  mean Cmax: 13.8 ng/mL
[1]; in vivo
  Cmax levels in females vs males: sometimes higher
  total drug exposure levels, adult females vs adult males: somewhat higher
[1]; males (n=4), 20 mg/day (10 mg twice per day)
  mean Cmax: 15.1 ng/mL
[1]; pre-diabetic hyperglycemic females (n=6), 10 mg per day (5 mg twice per day)
  mean Cmax: 11.2 ng/mL
[1]; pre-diabetic hyperglycemic males (n=2), 10 mg per day (5 mg twice per day)
  mean Cmax: 3.8 ng/mL
[1]; rheumatoid arthritis patients, females (n=6), 40 mg/day (20 mg twice per day)
  mean Cmax: 27.4 ng/mL
[1]; rheumatoid arthritis patients, males (n=2), 40 mg/day (20 mg twice per day)
  mean Cmax: 43.7 ng/mL
[2]; M<5 drug treated patients
  adiponectin: not affected
[2]; M<5 drug treated subjects
  Resistin: increased much less
[2]; M<5 patients compared to M>5 patients, p=0.094 exact Mann-Whitney
  decrease in CRP: significant
[2]; all drug treated cohorts (decreased in placebo patients)
  Leptin: increased
[2]; [4]
  IL-1β (LPS stimulated PBMC): highly significant decrease
  IL-6 (LPS stimulated PBMC): highly significant decrease
  MCP1 (LPS stimulated PBMC): highly significant decrease
  TNFα (LPS stimulated PBMC): highly significant decrease
[2]; cohort 6 (diabetic patients, 10 mg/day), p=0.002
  Leptin: significantly increased
[2]; day 29, drug treated M<5 vs drug treated M>5 patients, p=0.075
  TNFα (LPS stimulated PBMC): greater decrease
[2]; day 29, drug treated M<5 vs drug treated M>5 patients, p=0.093
  MCP1 (LPS stimulated PBMC): greater decrease
[2]; drug treated subjects vs placebo control patients
  Resistin: increased less
[2]; insulin resistant subjects (M<5) compared to placebo-treated subjects, p=0.018 exact Mann-Whitney
  CRP: significantly decreased

From patent US20100227841A1, “Patient populations and treatment methods” (Harbor BioSciencs, Inc., priority 2008, published 2010)
